Measurements reported in patent US11267840B1, “Compound or salt thereof” (M.T.3, Inc., priority 2020, dated 2022).

Experiments:
[1] = molecular target: T1, lipase for organic synthesis (Lipase PS Amano SD) (Burkholderia cepacia, UniProt P22088); type: in vitro ADME
T1 construct: purchased FUJIFILM Wako Pure Chemical Corporation
Experimental: The test compound and lipase for organic synthesis (Lipase PS Amano SD, manufactured by FUJIFILM Wako Pure Chemical Corporation) were each adjusted using PBS so as to have a concentration of 1.3 μg/μL. Next, the thus obtained reaction solution was developed by TLC using an eluent (chloroform:methanol=1:1) and was analyzed. A sample that was taken before reaction progressed, a sample that was taken when 2 hours elapsed, and a sample that was taken when 4 hours elapsed were each used as the reaction solution to be developed. As for the reaction solution in which the compound (A) was used as the test compound, analysis was also performed on a sample that was taken when 18 hours elapsed from the start of reaction. TLC aluminum sheet silica gel 60 F254 (manufactured by Merck) was used as the TLC.

[2] = tested on: adenocarcinomic human alveolar basal epithelial cell line A549 cells; assay: ROS production in A549 cells (CellROX Green fluorescence), test as candidate compound for radiosensitizer; type: cell-based; conditions: 1 hour with test compound, CellROX Green 30 minutes, excitation 485 nm, detection 520 nm, FIG. 19
Experimental: Fetal bovine serum (FBS) (manufactured by Sigma-Aldrich) was added to RPMI1640 (manufactured by Sigma-Aldrich) such that a final concentration was 10%. Further, penicillin G potassium (manufactured by Meiji Seika) and Streptomycin (manufactured by Meiji Seika) were each added in an amount of 0.1 mg/mL, and the thus obtained solution was used as a culture medium in the following test. Also, a CellROX Green Reagent solution (manufactured by Thermo Fisher Scientific) was used as a reagent.
Adenocarcinomic human alveolar basal epithelial cell line A549 cells were suspended in the RPMI1640 medium (1.0×10^5 cells/mL), and the suspension was poured into a 96-well plate in an amount of 100 μL for each well. Thereafter, the cells were cultivated under a 5% CO2 moisture-saturated condition at 37° C. so as to attach to the plate, and after the cultivation was performed for 24 hours, the medium was removed by suction and the cells were washed with PBS. Next, 100 μL of PBS and 100 μL of a suspension of the test compound suspended in PBS ([…]) were separately added. […] After the cultivation was performed for 30 minutes, washing was performed using PBS, and fluorescence intensity at an excitation wavelength of 485 nm and a detection wavelength of 520 nm was measured.

T1 sequence (P22088 45-364): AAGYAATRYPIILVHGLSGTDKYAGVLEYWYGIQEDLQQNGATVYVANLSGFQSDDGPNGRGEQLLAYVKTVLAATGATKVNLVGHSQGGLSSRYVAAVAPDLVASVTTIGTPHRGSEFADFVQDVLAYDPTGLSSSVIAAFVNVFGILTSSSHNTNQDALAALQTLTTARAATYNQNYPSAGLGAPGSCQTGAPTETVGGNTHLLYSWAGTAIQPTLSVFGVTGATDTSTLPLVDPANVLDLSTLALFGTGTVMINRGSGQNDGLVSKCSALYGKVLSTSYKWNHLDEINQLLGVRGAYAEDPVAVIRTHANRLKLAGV

For “3-(n-octadecyloxy)-n-propyl-α-D-quinovopyranoside sodium salt [compound (A)]”, the “resistance to hydrolysis compared with the sulfopyranosylacyl propanediol derivative” value ([1]; lipase, overall conclusion of FIG. 20) was “more excellent resistance to hydrolysis”, the “decomposition of the test compound by lipase (TLC)” value ([1]; when 18 hours elapsed from the start of reaction, compound and lipase each 1.3 μg/μL in PBS, FIG. 20) was “not completely decomposed” and the “ROS production (ROS production ratio, fluorescence intensity relative to PBS only = 1)” value [2] was “induced production of the ROS”.
